Data: publication PMC4783179 (The Journal of comparative neurology, 2015)
Several values for one entry are separate records, joined by “and”; a condition that tells them apart may be missing. Equal values may be shown once. Read-outs that look alike come from different tables or passages of the source.

Key:
5-HT1A receptors = details: ref Wooten et al., cited from earlier work
rabbits [1] = assay: 14-Day Toxicity Study of FCWAY, intravenous; format: in vivo; details: from rabbit 0.3 mg/kg/day
rabbits [2] = details: intravenous, 14 consecutive days, ref PDSP data base; cited from earlier work
[3] = system: serotonin release in the rat frontal cortex; details: ref Mukaida et al., 2007; cited from earlier work
[4] = system: hippocampal extracellular serotonin levels; details: mice; ref Whittington and Virag, 2006; cited from earlier work
human P-glycoprotein = details: cited from earlier work
human = details: ref PDSP data base; cited from earlier work
[5] = humans, baseline and with disulfiram; ref Ryu et al., 2007; cited from earlier work
[6] = humans, with disulfiram; ref Ryu et al., 2007; cited from earlier work
[7] = rat, in vivo; cited from earlier work

## COc1ccccc1N1CCN(CCN(C(=O)C2CCC(CF)CC2)c2ccccn2)CC1 (single isomer, unassigned) [cis-isomer of Mefway]
5-HT1A receptors; 2011a
  Binding compared to trans-isomer: lower binding

## COc1ccccc1N1CCN(CCN(C(=O)C2CCCC(CF)C2)c2ccccn2)CC1 (stereo not drawn) [3-Mefway analog]
5-HT1A receptors; 2014
  In vivo binding properties compared to 4-Mefway: lower in vivo binding properties

## COc1ccccc1N1CCN(CCN(C(=O)C2CCC(F)CC2)c2ccccn2)CC1 (stereo not drawn) [FCWAY]
Rabbits [1]
  Human equivalent dose (HED) of the no-effect level: 0.097 mg/kg
Rabbits [2]
  No-effect level: 0.3 mg/kg body weight/day

## FC(F)OC(Cl)C(F)(F)F (stereo not drawn) [Isoflurane]
[3]
  Serotonin release, frontal cortex: < 40 % of awake state
[4]
  Hippocampal extracellular serotonin levels: < 40 % of baseline

## COc1ccccc1N1CCN(CCN(C(=O)c2ccc(F)cc2)c2ccccn2)CC1 [MPPF]
Human P-glycoprotein
  Substrate of human P-glycoprotein: not being suitable substrates

## COc1ccccc1N1CCN(CCN(C(=O)C2CCCCC2)c2ccccn2)CC1 [WAY-100635, N-{2-[4-(2-methoxyphenyl)piperazin-1-yl]ethyl}-N-(pyridine-2-yl)cyclohexanecarboxamide]
Human P-glycoprotein; ref Tournier et al., 2011
  Substrate of human P-glycoprotein: not being suitable substrates
human
  Daily dose safely used in human: up to 700 μg/kg

## COc1ccccc1N1CCN(CCN(C(=O)C2CCC([18F])CC2)c2ccccn2)CC1 (stereo not drawn) [^18F-FCWAY]
[5]
  Plasma free fraction: 13% and ~ 13%
[6]
  Decrease of plasma clearance compared to baseline: 47%

## O=C(O)[C@H]1CC[C@H](C[18F])CC1 [^18F-FMCHA]
[7]
  Brain penetration and retention: poor penetration and retention
